The values that follow come from US10640527B2, “Mesitylene-cored amphiphiles and uses thereof” (Industry-University Cooperation Foundation Hanyang …, priority 2016, dated 2020).

A short description of series [1]: Critical micelle concentration by fluorophore encapsulation using diphenylhexatriene (DPH). It counts as physicochemical. The note with it: aqueous solution. The method, then:
A method of measuring a CMC is not particularly limited, and those methods widely known in the related field may be used. For example, a CMC may be measured by a fluorophore encapsulation method using diphenylhexatriene (DPH).
(§1) Specifically, a CMC was measured by a fluorophorescent encapsulation method using diphenylhexatriene (DPH) and an Rh of a micelle formed by each formulation (1.0 wt %) was measured using a dynamic light scattering (DLS) experiment.

Series [2] deals with T1, melibiose permease (MelBSt) (Salmonella typhimurium, UniProt P30878).
T1 construct: made in house; host or cells: DW2 cells (ΔmelB and ΔlacZY), Salmonella typhimurium DW2
The experiment in a line: MelBSt extraction from membranes and thermal stability, SDS-PAGE and Western blotting. It counts as biochemical. The note with it: 1.5 wt %, 90 minutes; for MelBSt protein extraction efficiency compared with DDM: 45° C.; for MelBSt extraction ability compared with DDM: 55° C. The method, then: An experiment for measuring the structural stability of Salmonella typhimurium melibiose permease (MelBSt) according to MGAs in an aqueous solution was performed. After MelBSt proteins were extracted from a membrane using MGAs or DDM, the amount and structure of extracted proteins were analyzed by SDS-PAGE and western blotting. The concentration of used amphiphiles was 1.5 wt %, and proteins were extracted at four different temperatures of 0, 45, 55 and 65° C. to evaluate both the protein extraction efficiency and stabilizing ability of a compound. A membrane sample which had not been treated with MGAs or DDM was used as a control group.
Specifically, MelBSt stability solubilized in DDM or MGAs was evaluated according to a method described in 2010 in a research article (P. S. Chae et al., Nat. Methods 2010, 7, 1003-1008.) by the inventors of the present invention. Proteins (MelBSt) were produced using plasmid pK95ΔAHB/WT MelBSt/CH10 encoding the wild-type MelB with a 6-His tag at the C-terminus and Salmonella typhimurium DW2 cells (ΔmelB and ΔlacZY). Cell growth and membrane preparation was performed according to a method described in a research article (Nat. Commun. 2014, 5, 3009) by A. S. Ethayathulla, et al. A protein assay was carried out using a Micro BCA kit (Thermo Scientific, Rockford, Ill.). In order to measure protein solubilization, a membrane sample (final protein concentration was 10 mg/mL) containing MelBSt was incubated with a solubilization buffer (20 mM sodium phosphate, pH 7.5, 200 mM NaCl, 10% glycerol and 20 mM melibiose) and 1.5% (w/v) DDM or MGA (MGA-C10, MGA-C11, MGA-C12, MGA-C13, MGA-C14 or MGA-C15) at four different temperatures of 0, 45, 55 and 65° C. for 90 minutes. After ultracentrifugation at 355,590 g in a Beckman Optima™ MAX Ultracentrifuge using a TLA-100 rotor for 45 min at 4° C., 20 μg of a protein was separated by SDS-16% PAGE and immunoblotted with a Penta-His-HRP antibody (Qiagen, Germantown, Md.). MelBSt was measured by an ImageQuant LAS 4000 Biomolecular Imager (GE Healthcare Life Sciences) using a SuperSignal West Pico chemiluminescent substrate.
For orientation: In western blotting, separated proteins are transferred to a membrane and probed.

Another series in a line: Water-solubility. It counts as physicochemical. The note with it: in water.
A short description of series [3]: Hydrodynamic radius / size distribution of micelles by dynamic light scattering (DLS). It counts as physicochemical. The note with it: 1.0 wt % amphiphile. Here is the method: A method of measuring a radius of the micelle is not particularly limited, and those methods widely known in the related field may be used, for example, a dynamic light scattering (DLS) experiment may be used for measurement.
as §1

Series [4] addresses human β2-adrenergic receptor (β2AR) (Homo sapiens, UniProt P07550). The experiment in a line: Size exclusion chromatography (SEC) of β2AR solubilized in amphiphile. Here is the method:
A size exclusion chromatography (SEC) experiment was conducted to determine the β2AR crystallization effect and β2AR stability preservation effect by MGA-C13 or DDM.
Specifically, β2AR purified by 0.1% DDM was mixed with a DDM or MGA-C13 buffer (20 mM HEPES pH 7.5, 100 mM NaCl, 0.2% of each amphiphile) and incubated for 30 minutes. The sample was applied to a Superdex-200 10/300 GL column (GE Healthcare Life Sciences) at a rate of 0.5 ml/min, fluorescence was recorded at 345 nm, and an […] wavelength was 295 nm. A running buffer contained 20 mM HEPES (pH 7.5) and 100 mM NaCl, and contained each amphiphile (DDM or MGA-C13) or not.

The target in series [5] is T2, uric acid-xanthine/H+ symporter (UapA) (Emericella nidulans, UniProt Q07307, G411V).
T2 construct: GFP; made in house; host or cells: Saccharomyces cerevisiae FGY217
As to the kind of experiment: UapA structural (thermal) stability, CPM assay. It counts as biochemical, Aspergillus nidulans. The method, then: An experiment for measuring the structural stability of uric acid-xanthine/H^+ symporter (UapA) solubilized in MGAs in an aqueous solution was performed. The structural stability of UapA was measured using a CPM assay, and was measured at MGAs and DDM concentrations of (a) CMC+0.04 wt %, or (b) CMC+0.2 wt %.
Specifically, a UapA protein is a uric acid-xanthine/H^+ symporter in Aspergillus nidulans. Protein stability was measured by fluorescence spectroscopy using N-[4-(7-diethylamino-4-methyl-3-coumarinyl)phenyl]maleimide (CPM) which is a sulfhydryl-specific fluorophore. A free sulfhydryl group of a cysteine residue is in the interior of a protein, but becomes accessible to a solvent upon protein unfolding. CPM becomes fluorescent by a reaction with the free thiol, and thus provides as a protein unfolding sensor. In order to measure thermal stability, first, UapAG411V1-11 was expressed in the Saccharomyces cerevisiae FGY217 strain by fusion with GFP, and separated in a sample buffer (20 mM Tris (pH 7.5), 150 mM NaCl, 0.03% DDM and 1 mM xanthine) according to a method described in a research article (Mol. Membr. Biol. 2013, 30, 32-42) by J. Leung et al. A UapA protein was concentrated to about 10 mg/ml using a 100 kDa molecular weight cut-off filter (Millipore). The concentrated protein was diluted to a ratio of 1:150 with each buffer including DDM or MGA (MGA-C10, MGA-C11, MGA-C12, MGA-C13, MGA-C14 or MGA-C15) at a concentration of CMC+0.04 wt % or CMC+0.2 wt % in a Greiner 96-well plate. A CPM dye (Invitrogen) stored in DMSO (Sigma) was diluted with a dye buffer (20 mM Tris (pH 7.5), 150 mM NaCl, 0.03% DDM and 5 mM EDTA), and 3 μl of the diluted dye was added to each protein sample. The reaction mixture was incubated at 40° C. for 120 minutes. Fluorescence emission was monitored using a microplate spectrofluorometer, with an excitation wavelength at 387 nm and an emission wavelength at 463 nm. Relative maximum fluorescence was used to calculate a percentage of relative folded protein remaining after 120 minutes at 40° C. Relative unfolded proteins were plotted against time using GraphPad Prism.
Specifically, a UapA stabilization effect was evaluated by the same method as in Experimental Example 2 using MGA-C13, MGA-C14, MNG-3 or DDM at a concentration of (a) CMC+0.04 wt % or (b) CMC+0.2 wt %.

T1 sequence (P30878 whole entry): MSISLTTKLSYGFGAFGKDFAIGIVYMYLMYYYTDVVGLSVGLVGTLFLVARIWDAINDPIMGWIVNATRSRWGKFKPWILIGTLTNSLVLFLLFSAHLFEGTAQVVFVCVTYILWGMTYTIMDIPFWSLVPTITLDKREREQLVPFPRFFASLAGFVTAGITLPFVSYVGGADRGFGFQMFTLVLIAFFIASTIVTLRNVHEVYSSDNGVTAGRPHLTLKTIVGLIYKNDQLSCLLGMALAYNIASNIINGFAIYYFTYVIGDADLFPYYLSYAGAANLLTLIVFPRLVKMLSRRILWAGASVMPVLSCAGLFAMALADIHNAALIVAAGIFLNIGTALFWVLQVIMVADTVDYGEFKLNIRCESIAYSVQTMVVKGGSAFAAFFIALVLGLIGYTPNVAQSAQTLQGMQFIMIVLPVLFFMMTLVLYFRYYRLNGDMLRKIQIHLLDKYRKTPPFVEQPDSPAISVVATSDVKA
T2 sequence (Q07307 12-574 G411V): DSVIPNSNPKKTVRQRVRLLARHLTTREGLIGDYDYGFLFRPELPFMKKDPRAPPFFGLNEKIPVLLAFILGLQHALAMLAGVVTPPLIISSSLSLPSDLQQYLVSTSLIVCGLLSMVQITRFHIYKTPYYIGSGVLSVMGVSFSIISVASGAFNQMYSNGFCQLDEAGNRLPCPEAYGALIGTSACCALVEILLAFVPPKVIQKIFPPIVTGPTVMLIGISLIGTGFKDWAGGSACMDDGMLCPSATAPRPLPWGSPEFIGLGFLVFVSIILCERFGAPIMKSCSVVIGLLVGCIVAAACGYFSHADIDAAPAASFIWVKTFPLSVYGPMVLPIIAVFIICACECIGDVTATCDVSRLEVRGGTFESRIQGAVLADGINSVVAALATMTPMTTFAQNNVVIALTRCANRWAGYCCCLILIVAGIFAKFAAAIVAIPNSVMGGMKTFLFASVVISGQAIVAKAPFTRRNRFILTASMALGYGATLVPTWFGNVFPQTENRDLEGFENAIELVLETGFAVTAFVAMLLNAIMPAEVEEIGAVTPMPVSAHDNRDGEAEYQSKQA
Sequence of human β2-adrenergic receptor (β2AR) (P07550 whole entry): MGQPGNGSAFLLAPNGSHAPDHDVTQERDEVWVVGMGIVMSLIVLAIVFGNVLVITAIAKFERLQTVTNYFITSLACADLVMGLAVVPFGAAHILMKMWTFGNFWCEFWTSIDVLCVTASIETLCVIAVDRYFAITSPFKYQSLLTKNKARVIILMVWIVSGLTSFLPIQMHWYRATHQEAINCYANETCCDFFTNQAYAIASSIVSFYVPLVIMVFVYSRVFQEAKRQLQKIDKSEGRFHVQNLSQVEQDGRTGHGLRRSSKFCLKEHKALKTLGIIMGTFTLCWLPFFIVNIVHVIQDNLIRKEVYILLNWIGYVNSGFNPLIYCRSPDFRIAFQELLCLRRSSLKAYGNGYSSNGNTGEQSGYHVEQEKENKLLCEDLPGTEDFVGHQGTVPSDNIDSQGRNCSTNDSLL

For the compound `CCCCCCCCCCCCCCCC(CO[C@@H]1OC(CO)[C@@H](O)C(O)C1O)(CO[C@@H]1OC(CO)[C@@H](O)C(O)C1O)Cc1cc(CC(CCCCCCCCCCCCCCC)(CO[C@@H]2OC(CO)[C@@H](O)C(O)C2O)CO[C@@H]2OC(CO)[C@@H](O)C(O)C2O)cc(CC(CCCCCCCCCCCCCCC)(CO[C@@H]2OC(CO)[C@@H](O)C(O)C2O)CO[C@@H]2OC(CO)[C@@H](O)C(O)C2O)c1` (stereo partly drawn) [MGA-C15], in series [1], the “CMC” value is approximately 1.5 µM and the “CMC (wt %)” value is listed as approximately 0.0003 wt %. In series [2], the “MelBSt protein extraction efficiency compared with DDM” value is reported as “same level of protein extraction efficiency as DDM” and the “MelBSt extraction ability compared with DDM” value is on record as “higher MelBSt extraction ability than DDM”. Besides, the water-solubility in the series “Water-solubility” is reported as not below 20%. Also, the “Rh (nm), hydrodynamic radius of micelle” value in series [3] amounted to 3.6 ± 0.02 nm.
For `CCCCCCCCCCCCCC(CO[C@@H]1OC(CO)[C@@H](O)C(O)C1O)(CO[C@@H]1OC(CO)[C@@H](O)C(O)C1O)Cc1cc(CC(CCCCCCCCCCCCC)(CO[C@@H]2OC(CO)[C@@H](O)C(O)C2O)CO[C@@H]2OC(CO)[C@@H](O)C(O)C2O)cc(CC(CCCCCCCCCCCCC)(CO[C@@H]2OC(CO)[C@@H](O)C(O)C2O)CO[C@@H]2OC(CO)[C@@H](O)C(O)C2O)c1` (stereo partly drawn) [MGA-C13], in series [1], the “CMC” value is approximately 3 µM and the “CMC (wt %)” value is approximately 0.0006 wt %. Moreover, the “size of protein-detergent complexes (PDCs) with β2AR” value in series [4] (SEC, amphiphile-containing buffer, 0.2% amphiphile) is listed as “smaller protein-detergent complexes (PDCs) than DDM”. The “SEC profile of solubilized β2AR” value in series [4] (amphiphile-free running buffer) is “almost no change”. For the same compound, in series [2], the “MelBSt protein extraction efficiency compared with DDM” value was “same level of protein extraction efficiency as DDM” and the “MelBSt extraction ability compared with DDM” value is “higher MelBSt extraction ability than DDM”. Besides, the “UapA stabilization effect compared with MNG-3” value in series [5] (CMC+0.04 wt % or CMC+0.2 wt %, FIG. 25) was “far greater UapA stabilization effect than MNG-3”. The “effect in maintaining folded UapA, ranking among MGAs” value in series [5] (CMC+0.2 wt %, 40° C., 120 minutes) is reported as “had the highest effect”. Also, in series [3], the “Rh (nm), hydrodynamic radius of micelle” value amounted to 3.2 ± 0.03 nm.
